# Source: US11478474B2, “2-(3′-(hydroxymethyl)-1-methyl-5-((5-(2-methyl-4-(oxetan-3-yl)piperazin-1-yl)pyridin-2-yl)amino)-6-oxo-1,6-dihydro-[3,4′-bipyridin]-2′-yl)-7,7-dimethyl-7,8-dihydro-2H-cyclopenta[4,5]pyrrolo[1,2-a]pyrazin-1(6H)-one as a BTK inhibitor” (HUTCHISON MEDIPHARMA LIMITED, priority 2020, dated 2022)
# Assays:
# [1] = Stability test in liver microsomes (rat); type: in vitro ADME; conditions: for stability in rat & mouse liver microsomes compared with the reference GDC-0853: 30 minutes; for RLM (percentage of the remaining compound after 30 minutes of incubation): rat liver microsomes 0.5 mg/mL, compound 1 μM, 37° C.
# From the text: (§1) Example 5 Stability Test in Liver Microsomes
# (§2) Both male CD-1 mouse pooled liver microsomes and male SD rat pooled liver microsomes were purchased from BioreclamationIVT Corporation, USA.
# (§3) Phenacetin, glucose-6-phosphate dehydrogenase (G-6-PDH) and nicotinamide adenine dinucleotide phosphate (NADP) were all purchased from Sigma-Aldrich Corporation, USA. Glucose-6-phosphate (G-6-P) was purchased from Shanghai Eybridge Chemical Technology Co., Ltd.
# (§4) Ten mM test compound stock solution: a certain amount of test compound was weighed, and dissolved with an appropriate volume of DMSO to prepare a stock solution with a concentration of 10 mM for use.
# (§5) Reaction stopping solution: an appropriate amount of internal standard compound phenacetin was dissolved in acetonitrile to prepare a reaction stopping solution with a concentration of 1000 ng/mL for use at room temperature.
# (§6) The test compound stock solution was diluted with an organic solvent (usually a mixture of acetonitrile, methanol and water with various ratios, depending on the solubility of the compound, if necessary, 1 N hydrochloric acid or 1 N sodium hydroxide would be added to facilitate solubilization) to the 0.1 mM (the final concentration of the compound in the reaction system was 1 μM) and the concentration percentage of the organic solvents in the incubation system no more than 1% (wherein the percentage of DMSO was required to be no more than 0.1%). An appropriate amount of 100 mM NADP, 500 mM G-6-P and 100 Unit/mL G-6-PDH were mixed and diluted with ultrapure water (the final system contains 1 mM NADP, 5 mM G-6-P and 1 Unit/mL G-6-PDH), pre-incubated in a 37° C. water bath for 10 minutes and then placed on ice for use as a NADPH regeneration solution. 20 mg/mL liver microsomes solution and 200 mM phosphate buffer was mixed, and diluted with ultrapure water to give a liver microsomes solution containing 2.5 mg/mL liver microsomes (the final concentration of the reaction system is 0.5 mg/mL) and 50 mM phosphate buffer. The diluted liver microsomes solution was mixed with 0.1 mM compound solution, a mixture of 100 mM EDTA, 300 mM MgCl2 solution, 200 mM phosphate buffer (the final system was 3 mM MgCl2, 1 mM EDTA and 50 mM phosphate buffer) and water in an appropriate volume was added. Finally, the NADPH regeneration solution was added, then the reaction solution was placed in a 37° C. water bath to start the reaction (the reaction time was 30 minutes), and the reaction was stopped by adding the ice-cold acetonitrile reaction stopping solution containing the internal standard. The 0-minute sample was not incubated in a 37° C. water bath, and its difference from the 30-minute sample further lies in that the ice-cold acetonitrile reaction stopping solution containing the internal standard was added first, and then the NADPH regeneration solution was added. The sample added with the reaction stopping internal standard solution was vortexed and mixed well, and then centrifuged at 4400 rpm for 10 minutes. The supernatant was taken and diluted ten times with 50% methanol for LC-MS/MS analysis.
# (§7) LC-MS/MS was used to determine the concentration of the compound in the sample. The percentage of the remaining compound after 30 minutes of incubation comparing with that in the 0-minute sample was calculated using the peak area ratio of the compound to the internal standard as an indicator, to evaluate the metabolic stability of the compound.
# (§8) Instrument: API4500, API4000 or LTQ Mass Spectrometer; the liquid phase is UHPLC system (Shimadzu LC-30 AD, model Nexra X2) including liquid delivery unit, column thermostat, detector and autosampler; or Agilent 1200 Binary Pump series HPLC and CTC Autosampler.
# (§9) Chromatographic column: Waters XSELECT Hss T3 C18 (2.5 μm, 2.1×50 mm) or […] (5 μm, 2.0×50 mm)
# (§10) A: water with 0.1% FA (formic acid) (with or without 0.1% ACN (acetonitrile))
# (§11) B: acetonitrile with 0.1% FA (formic acid).
# [2] = Stability test in liver microsomes (mouse); type: in vitro ADME; conditions: mouse liver microsomes 0.5 mg/mL, compound 1 μM, 37° C.
# From the text: as §1, §2, §3, §4, §5, §6, §7, §8, §9, §10, §11
# [3] = test system: collagen induced arthritis in rats; experiment: Rat arthritis model induced by type II collagen (CIA), paw volume; type: in vivo; conditions: CIA Lewis rats
# Protocol: Example 9 Therapeutic Effect of the Compound of the Present Invention on a Rat Arthritis Model Induced by Type II Collagen
# An appropriate amount of bovine type II collagen (CII, Chondrex (Redmond, Wash., USA), Cat #20021) was weighed and dissolved in 0.1 mole of acetic acid (SPGC Sinopharm Chemical Reagent Co., Ltd (Shanghai, P. R. China), Cat #: 10000218.), which was formulated into a solution with a concentration of 6 mg/mL, stirred at 4° C. overnight, and added with an equal volume of Freund's incomplete adjuvant (Sigma-Aldrich. (St. Louis, Mo., USA), Cat #: SLBW0366.), fully emulsified to prepare an emulsion with a CII concentration of 3 mg/mL.
# Female Lewis rats were purchased from Beijing Vital River Laboratory Animal Technology Co., Ltd (certificate number 1100111911070522, initial body weight of 110-130 grams), and 3 rats were randomly selected as normal group, and the remaining rats were grouped according to the following table. In the first immunization on day 0, the rats except that in the normal group were anesthetized with isoflurane (Hebei Yipin Pharmaceutical Co., Ltd., Lot: C002170601.), and then disinfected with 75% alcohol. 0.2 mL of emulsion was injected intradermally at the base of the tail thereof. A second challenge was carried out on day 7, and 0.2 mL of emulsion was intradermally injected using the same method.
# The paw volume was measured on day 8 after immunization, and the left and right hind paw volumes (V) were measured every day after the paw volume increase was detected.
# The average arthrosis paw volume of each animal before administration was used as the baseline (or considered 100% inhibition of inflammation). The averaged paw swelling (APS) of each animal is calculated according to the following formula, wherein, APVd1 is the average paw volume of the animal administered on day 1, and APVdt is the average paw volume of the animal administered on day t: The averaged paw swelling APSdt=(APVdt−APVd1)
# ED50 is calculated by XLfit software according to the AUC inhibition ratio of the area under the curve of the average paw volume change. The selected model is “log (inhibitor) vs. response−Variable slope”: […]
# [4] = oral QD, from AUC inhibition ratio of average paw volume change
Compound,stability in rat & mouse liver microsomes compared with the reference GDC-0853 [1],RLM (percentage of the remaining compound after 30 minutes of incubation) [1] [%],MLM (percentage of the remaining compound after 30 minutes of incubation) [2] [%],also measured
C[C@H]1CN(C2COC2)CCN1c1ccc(Nc2cc(-c3ccnc(-n4cnn5c6c(cc5c4=O)CC(C)(C)C6)c3CO)cn(C)c2=O)nc1 [Compound 63],better than that of the reference GDC-0853,89.6,85.8,–
C[C@H]1CN(C2COC2)CCN1c1ccc(Nc2cc(-c3ccnc(-n4ccn5c6c(cc5c4=O)CCC(F)(F)C6)c3CO)cn(C)c2=O)nc1 [Compound 56],better than that of the reference GDC-0853,93.7,89.5,–
C[C@H]1CN(C2COC2)CCN1c1ccc(Nc2cc(-c3ccnc(-n4ccn5c6c(cc5c4=O)CCC6)c3CO)cn(C)c2=O)nc1 [Compound 64],better than that of the reference GDC-0853,92.1,95.6,–
C[C@H]1CN(C2COC2)CCN1c1ccc(Nc2cc(-c3ccnc(-n4ccn5c(cc6ccccc65)c4=O)c3CO)cn(C)c2=O)nc1 [Compound 74],better than that of the reference GDC-0853,87.7,97.5,–
C[C@H]1CN(C2COC2)CCN1c1cnc(Nc2cc(-c3ccnc(-n4ccn5c6c(cc5c4=O)CC(C)(C)C6)c3CO)cn(C)c2=O)nc1 [Compound 44],better than that of the reference GDC-0853,97.1,93.1,–
"C[C@@H]1CN(c2ccc(Nc3cc(-c4ccnc(-n5ccn6c7c(cc6c5=O)CCC7)c4CO)cn(C)c3=O)nc2)[C@@H](C)CN1C1COC1 [Compound 2, 2-(5-((5-((2S,5R)-2,5-dimethyl-4-(oxetan-3-yl)piperazin-1-yl)pyridin-2-yl)amino)-3′-(hydroxymethyl)-1-methyl-6-oxo-1,6-dihydro-[3,4′-bispyridin]-2′-yl)-7,8-dihydro-2H-cyclopenta[4,5]pyrrolo[1,2-a]pyrazin-1(6H)-one]",better than that of the reference GDC-0853,98.9,90.5,–
Cn1cc(-c2ccnc(-n3ccn4c5c(cc4c3=O)CC(C)(C)C5)c2CO)cc(Nc2ccc(N3CCN(C4COC4)CC3)cn2)c1=O [Compound 9],better than that of the reference GDC-0853,89.5,95.7,–
C[C@H]1CN(C2COC2)CCN1c1ccc(Nc2cc(-c3ccnc(-n4ncn5c6c(cc5c4=O)CC(C)(C)C6)c3CO)cn(C)c2=O)nc1 [Compound 79],better than that of the reference GDC-0853,~100,~100,–
CC1CCc2cc3c(=O)n(-c4nccc(-c5cc(Nc6ccc(N7CCN(C8COC8)C[C@@H]7C)cn6)c(=O)n(C)c5)c4CO)ccn3c2C1 (mixture of isomers) [Compound 78],better than that of the reference GDC-0853,91.8,83.4,–
C[C@H]1CN(C2COC2)CCN1c1ccc(Nc2cc(-c3ccnc(-n4ccn5c6c(cc5c4=O)CC(F)(F)CC6)c3CO)cn(C)c2=O)nc1 [Compound 58],better than that of the reference GDC-0853,~100,97.1,–
C[C@H]1CN(C2COC2)CCN1c1ccc(Nc2cc(-c3ccnc(-n4ccn5c6c(cc5c4=O)CC(C)(C)C6)c3CO)cn(C)c2=O)nc1 [Compound 19],better than that of the reference GDC-0853,92.7,91.8,"inhibition ratio of area under the curve (paw swelling) ([3]; 0.06 mg/kg QD oral): 58.8%; inhibition ratio of area under the curve (paw swelling) ([3]; 0.25 mg/kg QD oral): 91.3%; inhibition ratio of area under the curve (paw swelling) ([3]; 1 mg/kg QD oral): 95.9%; inhibition ratio of area under the curve (paw swelling) ([3]; 4 mg/kg QD oral): 93.2%; inhibition ratio of area under the curve (paw swelling) ([3]; 16 mg/kg QD oral): 97.5%; ED50 [3, 4]: < 0.06 mg/kg/day; ED90 [3, 4]: 0.26 mg/kg; minimum effective dose ([3]; oral QD, paw swelling): 0.06 mg/kg/day"
C[C@H]1CN(C2COC2)CCN1c1ccc(Nc2cc(-c3ccnc(-n4ccn5c(cc6cc(F)ccc65)c4=O)c3CO)cn(C)c2=O)nc1 [Compound 75],better than that of the reference GDC-0853,84.0,83.0,–
"C[C@H]1CN(C2COC2)CCN1c1ccc(Nc2cc(-c3ccnc(N4CCn5c(cc6c5CC(C)(C)C6)C4=O)c3CO)cn(C)c2=O)nc1 [GDC-0853, fenebrutinib, reference compound]",–,81.0,76.3,"inhibition ratio of area under the curve (paw swelling) ([3]; 4 mg/kg QD oral): 87.1%; paw volume compared with the vehicle control group ([3]; 4 mg/kg QD oral, p<0.01): significantly reduced"
C[C@H]1CN(C2COC2)CCN1c1ccc(Nc2cc(-c3ccnc(-n4ccn5c6c(cc5c4=O)CC(C)(C)C6)c3CO)nn(C)c2=O)nc1 [Compound 22],better than that of the reference GDC-0853,95.6,83.4,–
